Data reported in PMC6018554, “2-[2-(4-(trifluoromethyl)phenylamino)thiazol-4-yl]acetic acid (Activator-3) is a potent activator of AMPK” (Scientific Reports, 2018).

Key:
Type in all cases: biochemical
[1] = target: T1, recombinant human AMPK α2β2γ2 (Homo sapiens, UniProt Q9UGJ0); assay: In vitro AMP kinase assay (pACC ELISA), α2β2γ2
T1 construct: purchased SignalChem; host or cells: baculovirus expression
Excerpt: Having observed the effect of Activator-3 on the activation of AMPK in cell based assays, we next examined whether Activator-3 could activate AMPK directly or not. […] The activity of recombinant human AMPK (α1β1γ1, α2β1γ1, α2β2γ2 and α2β2γ3) in the presence of vehicle was considered as 100%. The EC50 of Activator-3 for the activation of α1β1γ1, α2β1γ1 and α2β2γ2 isozymes were similar. However, the activity of Activator-3 against α2β2γ3 was marginally higher (Fig. 1C).
(§1) A high binding Enzyme Immuno Assay (EIA) 96-well plate (Sigma: Cat# CLS3590) was coated with Acetyl CoA Carboxylase 2 (ACC: 175–271 amino acids) peptide, a direct substrate for AMPK, 100 ng per well (1:1000 ratio, Cat# 12–491, Upstate biotechnology) and incubated overnight at 25 °C. Reaction mixture was incubated at 30 °C for 2 h and reaction was stopped by washing the plate with 0.05% Tween 20 followed by incubation with pACC primary antibody and rabbit secondary antibody as described in cell based ELISA section. Assay buffer is composed of 10 mM DTT, 100 mM magnesium acetate, 50 μM ATP and 10 mM HEPES.

Adenylate kinase = assay: AK activity assay kit
[2] = tested on: human recombinant α1β1γ1 AMPK γ1 mutants (R70G, R152G); assay: In vitro kinase assay with mutant AMPK pulled down from HEK-293T cells; conditions: 30 nM Activator-3; γ1 R70G, R152G mutants
Procedure: as §1
R70 and R152 residues in AMPK γ1 subunit (pDONR223-PRKAG1: purchased from addgene, cat# plasmid#23718) are mutated to glycine using overlapping extension PCR. Subsequently, the mutants were transferred into a triple tagged destination vector (Streptavidin, Flag and Biotin; SFB-pDEST) by using gateway cloning technology. The mutant DNA was transfected into HEK-293T cells using PEI following standard procedures. After 4 h of transfection, media was changed to DMEM containing 10% FBS. Cells were lysed in TENNS lysis buffer (20 mM Tris pH:8.0, 100 mM NaCl, 1 mM EDTA, 10 mM Na2H2P2O7, 10 mM NaF, 10 mM Na3VO4, 0.5% NP40) and subjected to pull down using streptavidin beads followed by biotin elution. To protect the protein from dephosphorylation, cells were treated with 500 μM AICAR prior to lysis. This purified protein was estimated by using nanodrop and taken for in vitro kinase assay to check whether Activator-3 is binding to the mutant AMPK or not, and the activity of the mutant protein was assessed by comparing with the wild type protein activity.

T1 sequence (Q9UGJ0 whole entry): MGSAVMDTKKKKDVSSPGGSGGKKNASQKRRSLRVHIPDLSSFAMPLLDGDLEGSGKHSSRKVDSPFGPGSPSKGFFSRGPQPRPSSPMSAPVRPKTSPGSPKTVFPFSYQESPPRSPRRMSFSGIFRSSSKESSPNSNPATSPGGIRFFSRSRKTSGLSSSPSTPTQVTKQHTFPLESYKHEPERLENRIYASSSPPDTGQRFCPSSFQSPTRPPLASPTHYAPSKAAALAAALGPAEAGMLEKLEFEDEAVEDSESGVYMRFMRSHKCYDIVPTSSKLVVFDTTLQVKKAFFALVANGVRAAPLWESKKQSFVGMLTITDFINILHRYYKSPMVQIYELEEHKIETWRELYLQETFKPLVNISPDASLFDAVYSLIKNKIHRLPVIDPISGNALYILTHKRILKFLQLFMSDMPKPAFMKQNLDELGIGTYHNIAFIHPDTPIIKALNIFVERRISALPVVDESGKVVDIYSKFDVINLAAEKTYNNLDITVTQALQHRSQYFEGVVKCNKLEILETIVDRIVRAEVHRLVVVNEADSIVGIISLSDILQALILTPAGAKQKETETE
T1 sequence (P54646 whole entry partner): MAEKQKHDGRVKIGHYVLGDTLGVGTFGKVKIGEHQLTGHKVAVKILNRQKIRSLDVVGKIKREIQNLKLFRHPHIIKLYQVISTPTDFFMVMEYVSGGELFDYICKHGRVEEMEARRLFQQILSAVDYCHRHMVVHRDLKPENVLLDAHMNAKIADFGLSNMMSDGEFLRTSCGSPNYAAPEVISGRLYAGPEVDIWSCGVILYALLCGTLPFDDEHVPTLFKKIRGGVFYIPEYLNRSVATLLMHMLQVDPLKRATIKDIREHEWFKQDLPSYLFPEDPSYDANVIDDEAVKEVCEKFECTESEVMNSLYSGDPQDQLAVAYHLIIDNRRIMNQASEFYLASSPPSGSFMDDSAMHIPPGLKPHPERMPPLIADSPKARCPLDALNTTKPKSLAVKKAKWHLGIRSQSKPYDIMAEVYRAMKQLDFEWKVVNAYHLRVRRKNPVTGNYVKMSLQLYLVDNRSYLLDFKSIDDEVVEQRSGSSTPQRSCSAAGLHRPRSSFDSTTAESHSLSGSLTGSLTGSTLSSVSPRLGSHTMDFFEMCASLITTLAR
T1 sequence (O43741 whole entry partner): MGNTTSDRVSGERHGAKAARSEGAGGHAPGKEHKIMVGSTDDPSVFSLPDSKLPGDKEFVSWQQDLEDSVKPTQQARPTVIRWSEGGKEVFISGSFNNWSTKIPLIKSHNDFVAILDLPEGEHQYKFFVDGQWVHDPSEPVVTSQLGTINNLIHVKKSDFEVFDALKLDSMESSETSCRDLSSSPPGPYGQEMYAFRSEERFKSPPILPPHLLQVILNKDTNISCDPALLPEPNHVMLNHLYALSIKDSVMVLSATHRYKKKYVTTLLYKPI

Compound: O=C(O)Cc1csc(Nc2ccc(C(F)(F)F)cc2)n1 [Activator-3, 2-[2-(4-(trifluoromethyl)phenylamino)thiazol-4-yl]acetic acid]
- change of AMPK activity stimulated by 100 µM AMP ([1]; Activator-3 1 nM to 10 μM with 100 µM AMP): minimal decrease
- EC50 ([1]; read-out: EC50 allosteric activation hα2β2γ2): ~26 nM
- effect on Adenylate kinase activity (Adenylate kinase; 1 µM): minimally affected
- effect on Adenylate kinase activity (Adenylate kinase; ≤10 µM): unaffected
- AMPK activity of mutant proteins vs wild type [2]: significant reduction
